Laboratory results published in patent US9518015B2, “EP1 receptor ligands” (LABORATORIOS DEL DR. ESTEVE, S.A., priority 2011, dated 2016).

Assays:
[1] = molecular target: T1, human EP1 receptor (Homo sapiens, UniProt P34995); assay: Test 1: Human EP1 receptor radioligand binding assay ([3H]-PGE2, transfected HEK-293 cell membranes); design: expressed in transfected cells; host or cells: HEK-293 cell membranes; settings: read-out: Results of Test 1 (Binding assay), % inh
T1 sequence (P34995 1-402): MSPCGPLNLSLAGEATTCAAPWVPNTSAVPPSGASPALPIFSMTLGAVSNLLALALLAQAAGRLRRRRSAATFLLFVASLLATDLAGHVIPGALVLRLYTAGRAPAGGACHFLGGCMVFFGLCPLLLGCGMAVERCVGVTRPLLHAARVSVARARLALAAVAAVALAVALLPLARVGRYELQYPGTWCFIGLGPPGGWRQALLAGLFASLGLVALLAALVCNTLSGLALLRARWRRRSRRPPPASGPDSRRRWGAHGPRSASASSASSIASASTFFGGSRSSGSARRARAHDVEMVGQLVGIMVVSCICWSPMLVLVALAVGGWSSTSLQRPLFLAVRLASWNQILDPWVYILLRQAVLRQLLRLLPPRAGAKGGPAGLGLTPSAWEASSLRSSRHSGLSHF
Procedure: Test 1: Human EP1 Receptor Radioligand Binding Assay
To investigate binding properties of EP1 receptor ligands to human EP1 receptor, transfected HEK-293 cell membranes and [3H]-PGE2 (Perkin Elmer) were used. In 96-well plates the assay was carried out with a total reaction volume of 250 μl, containing 25 μl of membrane suspension (30 μg protein/well), 25 μl of [3H]-PGE2 (10 nM) in either absence or presence of 25 μl of either buffer or PGE2 (10 μM) for total and non-specific binding, respectively. Binding buffer contained 10 mM MES, 1 mM MgCl2 and 1 mM EDTA at pH 6.0. Plates were incubated at 25° C. for 60 minutes. After the incubation period, 200 μl of incubate were transferred to MultiScreen HTS, FB plates (Millipore), filtered and plates were washed 6 times with ice-cold 10 mM MES, 1 mM MgCl2 and 1 mM EDTA at pH 6.0. Filters were dried and counted in a MicroBeta scintillation counter (Perkin-Elmer) using EcoScint liquid scintillation cocktail.
Percentage inhibition was calculated relating compounds activity to the 0% inhibition of the wells incubated with 10 nM [3H]-PGE2 alone (total binding) and 100% inhibition of the wells incubated with 10 nM [3H]-PGE2 plus 10 μM PGE2 (non-specific binding).

[2] = molecular target: T1, human EP1 receptor; assay: Test 2: Measurement of IP1 responses by HTRF, suspended HEK-293 cells stably expressing human EP1 receptors, PGE2 30 nM; type: cell-based; design: expressed in transfected cells; settings: for inhibition at 10 µM: HEK293, at 10 μM, read-out: Results of Test 2 (Functional assay), % inh
Procedure: Test 2: Measurement of IP1 responses by Homogeneous Time Resolved Fluorescence
IP1 measurements on HEK-293 cells that stably expressed human EP1 receptors were performed by using a system based on Homogeneous Time Resolved Fluorescense (HTRF) (Gabriel et al., 2003). This technology allows the direct measurement of IP1 in living cells. The principle of this assay is based on competition between IP1 produced by cells and IP1-d2 conjugate for the binding with monoclonal anti-IP1-cryptate conjugate. The HTRF IP1 kit from CisBio was used according to the manufacturer's directions. The experimental procedure was performed as stated below.
Suspended cells (30,000 cells per well) were added to 96-well culture plates in 40 μl of stimulation buffer (supplied by the kit). Compounds were then added in 20 μl of stimulation buffer and incubated at 37° C. for 15 minutes followed by 10 μl of PGE2 to a final concentration of […]. After 90 minutes at 37° C., the reaction was stopped lysing the cells with a mixture of 15 μl of cryptate and 15 μl of IP1-d2 prepared in the lysis buffer supplied by the manufacturer. Plates were incubated for an additional hour at room temperature and read at 665 nm/620 nm using an UltraEvolution Plate reader (Tecan).
Antagonist percentage inhibition was calculated relating compounds activity to the 0% inhibition of the wells incubated with 10 nM PGE2 alone and 100% inhibition of the wells incubated with 10 nM PGE2 plus 1 μM of the reference antagonist.

| inhibition at 10 µM [1] | inhibition at 10 µM [2] | Results of Test 2 (Functional assay), % inh ([2]; at 10 μM) | Compound |
| --- | --- | --- | --- |
| > 75% | > 75% |  | O=C(O)c1cccc2c1ccn2Cc1cc(Cl)ccc1OCc1ccc(C(F)(F)F)cc1 [Example 11, 1-(5-chloro-2-((4-(trifluoromethyl)benzyl)oxy)benzyl)-1H-indole-4-carboxylic acid] |
| > 75% | > 75% |  | O=C(O)c1cccc2c1ccn2Cc1cc(Cl)ccc1OCc1ccc(F)cc1Cl [Example 12, 1-(5-chloro-2-((2-chloro-4-fluorobenzyl)oxy)benzyl)-1H-indole-4-carboxylic acid] |
| 45 to 75% | > 75% |  | O=C(O)c1cccc2c1ccn2Cc1cc(Cl)ccc1OCc1c(F)c(F)cc(F)c1F [Example 13, 1-(5-chloro-2-((2,3,5,6-tetrafluorobenzyl)oxy)benzyl)-1H-indole-4-carboxylic acid] |
| > 75% | > 75% |  | O=C(O)c1cccc2c1ccn2Cc1cc(Cl)ccc1OCc1ccc(C(F)(F)F)cc1C(F)(F)F [Example 14] |
| 45 to 75% | > 75% |  | O=C(O)c1cccc2c1ccn2Cc1cc(Cl)ccc1OCc1ccc(F)c(Br)c1 [Example 17, 1-(2-((3-bromo-4-fluorobenzyl)oxy)-5-chlorobenzyl)-1H-indole-4-carboxylic acid] |
| 45 to 75% | > 75% |  | O=C(O)c1cccc2c1ccn2Cc1cc(F)ccc1OCc1ccc(F)cc1Cl [Example 19, 1-(2-((2-chloro-4-fluorobenzyl)oxy)-5-fluorobenzyl)-1H-indole-4-carboxylic acid] |
| 45 to 75% | > 75% |  | O=C(O)c1cccc2c1ccn2Cc1cc(Cl)ccc1OCc1ccc(F)c(F)c1F [Example 21, 1-(5-chloro-2-((2,3,4-trifluorobenzyl)oxy)benzyl)-1H-indole-4-carboxylic acid] |
| 45 to 75% | > 75% |  | O=C(O)c1cccc2c1ccn2Cc1cc(F)ccc1OCc1ccc(F)c(Br)c1 [Example 24, 1-(2-((3-bromo-4-fluorobenzyl)oxy)-5-fluorobenzyl)-1H-indole-4-carboxylic acid] |
| 45 to 75% | > 75% |  | O=C(O)c1cccc2c1ccn2Cc1cc(Br)ccc1OCc1ccc(F)c(Br)c1 [Example 25, 1-(5-bromo-2-((3-bromo-4-fluorobenzyl)oxy)benzyl)-1H-indole-4-carboxylic acid] |
| > 75% | > 75% |  | O=C(O)c1cccc2c1ccn2Cc1cc(Cl)ccc1OCc1cc(F)ccc1F [Example 29, 1-(5-chloro-2-((2,5-difluorobenzyl)oxy)benzyl)-1H-indole-4-carboxylic acid] |
| 45 to 75% | > 75% |  | O=C(O)c1cccc2c1ccn2Cc1cc(F)ccc1OCc1c(F)cccc1F [Example 33, 1-(2-((2,6-difluorobenzyl)oxy)-5-fluorobenzyl)-1H-indole-4-carboxylic acid] |
| 45 to 75% | > 75% |  | O=C(O)c1cccc2c1ccn2Cc1cc(F)ccc1OCc1cc(F)c(F)c(F)c1 [Example 34, 1-(5-fluoro-2-((3,4,5-trifluorobenzyl)oxy)benzyl)-1H-indole-4-carboxylic acid] |
| > 75% | > 75% |  | O=C(O)c1cccc2c1ccn2Cc1cc(Cl)ccc1OCc1ccccc1F [Example 45, 1-(5-chloro-2-((2-fluorobenzyl)oxy)benzyl)-1H-indole-4-carboxylic acid] |
| > 75% | > 75% |  | O=C(O)c1cccc2c1ccn2Cc1cc(Cl)ccc1OCc1ccc(C(F)(F)F)cc1F [Example 47, 1-(5-chloro-2-((2-fluoro-4-(trifluoromethyl)benzyl)oxy)benzyl)-1H-indole-4-carboxylic acid] |
| > 75% | > 75% |  | O=C(O)c1cccc2c1ccn2Cc1cc(Cl)ccc1OCc1ccc(Cl)cc1F [Example 48, 1-(5-chloro-2-((4-chloro-2-fluorobenzyl)oxy)benzyl)-1H-indole-4-carboxylic acid] |
| 45 to 75% | > 75% |  | O=C(O)c1cccc2c1ccn2Cc1cc(C(F)(F)F)ccc1OCc1cccc(F)c1 [Example 49, 1-(2-((3-fluorobenzyl)oxy)-5-(trifluoromethyl)benzyl)-1H-indole-4-carboxylic acid] |
| 45 to 75% | > 75% |  | O=C(O)c1cccc2c1ccn2Cc1cc(C(F)(F)F)ccc1OCc1ccc(F)cc1F [Example 51, 1-(2-((2,4-difluorobenzyl)oxy)-5-(trifluoromethyl)benzyl)-1H-indole-4-carboxylic acid] |
| 45 to 75% | > 75% |  | O=C(O)c1cccc2c1ccn2Cc1ccccc1OCc1ccc(F)cc1F [Example 54, 1-(2-((2,4-difluorobenzyl)oxy)benzyl)-1H-indole-4-carboxylic acid] |
|  | > 75% |  | O=C(O)/C=C/c1cccc2c1ccn2Cc1cc(Cl)ccc1OCc1ccc(Cl)cc1F [Example 83, (E)-3-(1-(5-chloro-2-((4-chloro-2-fluorobenzyl)oxy)benzyl)-1H-indol-4-yl)acrylic acid] |
|  | > 75% |  | O=C(O)COc1cccc2c1ccn2Cc1cc(C(F)(F)F)ccc1OCc1ccc(Cl)cc1F [Example 84, 2-((1-(2-((4-chloro-2-fluorobenzyl)oxy)-5-(trifluoromethyl)benzyl)-1H-indol-4-yl)oxy)acetic acid] |
|  | > 75% |  | O=C(O)COc1cccc2c1ccn2Cc1cc(Cl)ccc1OCC1CC1 [Example 85, 2-((1-(5-chloro-2-(cyclopropylmethoxy)benzyl)-1H-indol-4-yl)oxy)acetic acid] |
|  | > 75% |  | O=C(O)c1ccc2ccn(Cc3cc(Br)ccc3OCc3ccccc3)c2c1 [Example 87, 1-(2-(benzyloxy)-5-bromobenzyl)-1H-indole-6-carboxylic acid] |
|  |  | $$ (45 < % inh < 75) | O=C(O)CCc1cccc2c1ccn2Cc1cc(Cl)ccc1OCc1ccc(Cl)cc1F [Example 89, 3-(1-(5-chloro-2-((4-chloro-2-fluorobenzyl)oxy)benzyl)-1H-indol-4-yl)propanoic acid] |
|  | > 75% |  | O=C(O)c1ccnc2c1ccn2Cc1cc(Cl)ccc1OCc1ccc(Cl)cc1F [Example 90, 1-(5-chloro-2-((4-chloro-2-fluorobenzyl)oxy)benzyl) -1H-pyrrolo[2,3-b]pyridine-4-carboxylic acid] |
|  | 45 to 75% |  | O=C(O)c1cccc2c1ncn2Cc1cc(Cl)ccc1OCc1ccc(Cl)cc1F [Example 92, 1-(5-chloro-2-((4-chloro-2-fluorobenzyl)oxy)benzyl) -1H-benzo[d]imidazole-4-carboxylic acid] |
|  | > 75% |  | O=C(O)c1cccc2c1CCN2Cc1cc(Cl)ccc1OCc1ccc(Cl)cc1F [Example 93, 1-(5-chloro-2-((4-chloro-2-fluorobenzyl)oxy)benzyl)indoline-4-carboxylic acid] |
|  | > 75% |  | O=C(O)c1cccc2c1CCCN2Cc1cc(Cl)ccc1OCc1ccc(Cl)cc1F [Example 94, 1-(5-chloro-2-((4-chloro-2-fluorobenzyl)oxy)benzyl) -1,2,3,4-tetrahydroquinoline-5-carboxylic acid] |
|  | > 75% |  | O=C(O)c1cccc2c1CCCN2Cc1cc(Cl)ccc1OCc1ccc(F)cc1F [Example 95] |
|  | > 75% |  | O=C(O)c1ccc(F)c2c1ccn2Cc1cc(Cl)ccc1OCc1ccc(F)cc1F [Example 100, sodium 1-(5-chloro-2-((2,4-difluorobenzyl)oxy)benzyl)-7-fluoro-1H-indole-4-carboxylate] |
